Reference: ChEMBL document CHEMBL4043113, “A novel antihypertension agent, sargachromenol D from marine brown algae, Sargassum siliquastrum, exerts dual action as an L-type Ca2+ channel blocker and endothelin A/B2 receptor antagonist” (Bioorg Med Chem, 2017)
Active and inactive are the calls of the source. No cut-off for these calls is given here.

What was measured:
Oryctolagus cuniculus = organism: Oryctolagus cuniculus; experiment: (§1) Antagonist activity at New Zealand rabbit endothelin A/B2 receptor assessed as dilation of endothelin-1 induced basilary artery contraction measured after 20 mins
[1] = Antagonist activity at New Zealand rabbit L-type calcium channel assessed as dilation of K+-depolarization induced basilary artery contraction measured after 20 mins; design: species or system Oryctolagus cuniculus
[2] = as §1; design: species or system Oryctolagus cuniculus

| Structure (SMILES) | Activity (Oryctolagus cuniculus) | EC50 [1] [µM] | EC50 [2] [µM] |
| --- | --- | --- | --- |
| CC(=O)CC/C=C(\C)CCC/C(C)=C\C(=O)CC(C)C | inactive |  |  |
| CC(=O)CC/C=C(\C)CCC/C(C)=C/C(=O)CC(C)C | inactive |  |  |
| COCCOC(=O)C1=C(C)NC(C)=C(C(=O)OC(C)C)C1c1cccc([N+](=O)[O-])c1 (stereo unspecified) [NIMODIPINE] |  | 0.52 |  |
| C/C(=C\CCC(C)O)CCC/C(C)=C/C(=O)CC(C)C (stereo unspecified) | inactive | 3.52 |  |
| COc1ccccc1Oc1c(NS(=O)(=O)c2ccc(C(C)(C)C)cc2)nc(-c2ncccn2)nc1OCCO [BOSENTAN] |  |  | 0.53 |
